In ChEMBL document CHEMBL4266058, “2-Aminoadipic Acid-C(O)-Glutamate Based Prostate-Specific Membrane Antigen Ligands for Potential Use as Theranostics” (ACS Med Chem Lett, 2018):

Each compound was assayed against Glutamate carboxypeptidase 2 (Homo sapiens, UniProt Q04609) (assay: Inhibition of recombinant human PSMA using [3H]NAAG as substrate preincubated for 15 mins followed by substrate addition measured after 20 mins by liquid scintillation method).
Glutamate carboxypeptidase 2, sequence (Q04609 whole entry): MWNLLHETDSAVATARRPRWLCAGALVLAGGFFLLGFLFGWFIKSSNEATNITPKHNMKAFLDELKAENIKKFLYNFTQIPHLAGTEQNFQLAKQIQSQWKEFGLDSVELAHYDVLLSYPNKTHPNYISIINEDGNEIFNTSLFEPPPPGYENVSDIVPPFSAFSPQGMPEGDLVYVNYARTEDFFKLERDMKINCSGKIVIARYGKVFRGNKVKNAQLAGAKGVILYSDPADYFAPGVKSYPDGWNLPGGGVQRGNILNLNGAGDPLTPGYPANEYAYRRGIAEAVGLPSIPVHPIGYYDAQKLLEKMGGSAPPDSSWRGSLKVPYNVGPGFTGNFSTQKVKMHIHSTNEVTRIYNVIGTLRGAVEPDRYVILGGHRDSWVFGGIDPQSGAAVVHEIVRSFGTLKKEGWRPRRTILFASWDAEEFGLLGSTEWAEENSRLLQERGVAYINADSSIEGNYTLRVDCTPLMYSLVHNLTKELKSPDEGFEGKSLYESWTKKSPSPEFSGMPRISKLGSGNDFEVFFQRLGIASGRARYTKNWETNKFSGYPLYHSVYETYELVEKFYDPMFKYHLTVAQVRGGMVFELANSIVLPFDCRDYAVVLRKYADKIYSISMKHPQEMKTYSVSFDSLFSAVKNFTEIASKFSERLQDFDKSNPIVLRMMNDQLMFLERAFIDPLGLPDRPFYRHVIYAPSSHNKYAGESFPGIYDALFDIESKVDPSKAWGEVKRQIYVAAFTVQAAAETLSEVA

| SMILES | IC50 |
| --- | --- |
| O=C(O)CC[C@H](NC(=O)N[C@@H](CCCC(=O)N(CCNC(=O)c1ccc(F)nc1)c1ccccc1)C(=O)O)C(=O)O | 0.13 nM |
| C[C@H](NC(=O)CCC[C@H](NC(=O)N[C@@H](CCC(=O)O)C(=O)O)C(=O)O)c1ccc(F)nc1 | 4.46 nM |
| O=C(O)CC[C@H](NC(=O)N[C@@H](CCCC(=O)NC(c1ccc(F)cc1)c1ccc(F)cc1)C(=O)O)C(=O)O | 1.19 nM |
| CN(C(=O)CCC[C@H](NC(=O)N[C@@H](CCC(=O)O)C(=O)O)C(=O)O)c1ccc(F)nc1 | 0.075 nM |
| O=C(O)CC[C@H](NC(=O)N[C@@H](CCCC(=O)N(CCNC(=O)c1ccc(F)cc1)c1ccccc1)C(=O)O)C(=O)O | 0.15 nM |
| CN(Cc1cccc(F)c1)C(=O)CCC[C@H](NC(=O)N[C@@H](CCC(=O)O)C(=O)O)C(=O)O | 0.46 nM |
| O=C(O)CC[C@H](NC(=O)N[C@@H](CCCC(=O)NCCNC(=O)c1ccc(F)nc1)C(=O)O)C(=O)O | 1.11 nM |
| O=C(O)CC[C@H](NC(=O)N[C@@H](CCCC(=O)Nc1ccc(F)nc1)C(=O)O)C(=O)O | 0.99 nM |
| O=C(O)CC[C@H](NC(=O)N[C@@H](CCCC(=O)NCc1ccccc1F)C(=O)O)C(=O)O | 2.11 nM |

Now from value to compound:

| IC50 | SMILES |
| --- | --- |
| 0.28 nM | O=C(O)CC[C@H](NC(=O)N[C@@H](CCCC(=O)Nc1cccc(F)c1)C(=O)O)C(=O)O |
| 2.32 nM | O=C(O)CC[C@H](NC(=O)N[C@@H](CCCC(=O)NCc1ccc(F)cc1)C(=O)O)C(=O)O |
| 5.24 nM | C[C@H](NC(=O)CCC[C@H](NC(=O)N[C@@H](CCC(=O)O)C(=O)O)C(=O)O)c1ccc(F)cc1 |
| 0.64 nM | CN(Cc1ccc(F)cc1)C(=O)CCC[C@H](NC(=O)N[C@@H](CCC(=O)O)C(=O)O)C(=O)O |
| 2.91 nM | O=C(O)CC[C@H](NC(=O)N[C@@H](CCCC(=O)NCc1cccc(F)c1)C(=O)O)C(=O)O |
| 5.44 nM | C[C@@H](NC(=O)CCC[C@H](NC(=O)N[C@@H](CCC(=O)O)C(=O)O)C(=O)O)c1ccc(F)cc1 |
| 0.2 nM | CN(C(=O)CCC[C@H](NC(=O)N[C@@H](CCC(=O)O)C(=O)O)C(=O)O)c1ccc(F)cc1 |
| 1.31 nM | O=C(O)CC[C@H](NC(=O)N[C@@H](CCCC(=O)N1CCN(c2ccc(F)cc2)CC1)C(=O)O)C(=O)O |
| 0.35 nM | O=C(O)CC[C@H](NC(=O)N[C@@H](CCCC(=O)Nc1ccc(F)cc1)C(=O)O)C(=O)O |
| 0.94 nM | O=C(O)CC[C@H](NC(=O)N[C@@H](CCCC(=O)NCCNC(=O)c1ccc(F)cc1)C(=O)O)C(=O)O |
